As a reminder, the NOAEL is the highest dose or exposure tested at which no adverse effect was seen.

Structures are written as SMILES.

Data set [1] has as its system Apis mellifera. The settings on record: acute; duration: 48 hours; dermal; mortality.
In data set [2] the test system is Canidae. The settings on record: Dog Other, clinical signs.
In data set [3] the test system is Coturnix japonica.
Data set [4] deals with Daphnia magna. The settings on record: chronic/long-term; duration: 21 days; reproduction.
For data set [5], the system named is Oncorhynchus mykiss.
Data set [6] has as its system Oryctolagus sp. The settings on record: acute; oral; mortality.
Data set [7] relates to Rattus norvegicus. The settings on record: reproduction developmental.
Data set [8] deals with Tagia sp.
The subject of data set [9] is Aphidius rhopalosiphi. Description: LR50; higher = less toxic. The note with it: not reported; mortality.

For the compound `C[N+](C)(C)CCCl.[Cl-]` [Chlormequat chloride], the LD50 in data set [1] is greater than 65.2 µg/piece; in data set [3] (acute, oral, mortality), 441 mg/kg-day; in data set [6], 115 mg/kg-day. Besides, the NOAEL in [2] (chronic, duration: 1 years, oral) was 4 mg/kg-day; in [2] (short-term, duration: 4 weeks), 9 mg/kg-day; in data set [7] (body weight) it was 41 mg/kg-day; in data set [7] (reproduction), 74 mg/kg-day. In addition, the LC50 in data set [3] (acute, oral, diet, mortality) was greater than 310 mg/kg-day; in data set [5] (acute, duration: 96 hours, mortality) it was greater than 100 µg/mL; in [8] (acute, duration: 14 days, mortality) it was 320 mg/kg. Besides, the NOEC in data set [3] (reproduction developmental) is 54.8 mg/kg-day; in data set [4] it was 2.4 mg/L; in data set [5] (chronic/long-term, duration: 21 days, growth) it was 43.1 mg/L; in data set [8] (chronic/long-term, duration: 56 days), 680 mg/kg. In addition, the LR50 in data set [9] is greater than 2200 g/ha.

These data come from EPA's ToxValDB 9.5 (doi:10.2903/j.efsa.2009.179r).
